Several values for one entry are separate records, joined by “and”; a condition that tells them apart may be missing. Equal values may be shown once.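 Cultured in 96-well plates, cells were exposed to test compound for 48 hours across five concentrations. GI50: concentration for 50% inhibition of growth. TGI: total growth inhibition.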
How the values were obtained:
Experiment in all cases: inhibition of tumour cell growth, NCI panel, 48 h
HCT-15 colon = test system: HCT-15 colon
SN12C renal = test system: SN12C renal
ACHN renal = test system: ACHN renal
NCI-H226 lung = test system: NCI-H226 lung
OVCAR-3 ovarian = test system: OVCAR-3 ovarian
M14 melanoma = test system: M14 melanoma
UO-31 renal = test system: UO-31 renal
HCC-2998 colon = test system: HCC-2998 colon
UACC-62 melanoma = test system: UACC-62 melanoma
U251 CNS = test system: U251 CNS

SMILES | TGI (HCT-15 colon) | TGI (SN12C renal) | TGI (ACHN renal) | TGI (NCI-H226 lung) | TGI (OVCAR-3 ovarian) | TGI (M14 melanoma) | TGI (UO-31 renal) | TGI (HCC-2998 colon) | TGI (UACC-62 melanoma) | TGI (U251 CNS) | GI50 (HCT-15 colon) | GI50 (SN12C renal) | GI50 (ACHN renal) | GI50 (NCI-H226 lung) | GI50 (OVCAR-3 ovarian) | GI50 (M14 melanoma) [µM] | GI50 (UO-31 renal) | GI50 (HCC-2998 colon) | GI50 (UACC-62 melanoma) | GI50 (U251 CNS)
CN(c1ccccc1)c1c(Cl)c(=O)oc2c1ccc1occc12 | > 100 µM | > 100 µM | > 100 µM | > 100 µM | > 100 µM | > 100 µM | > 100 µM | > 100 µM | > 100 µM | > 100 µM | – | – | – | – | – | – | – | – | – | –
COc1ccc(N=N/C(C(=O)C(F)(F)F)=C(\O)c2ccc(Cl)cc2)cc1 | > 100 µM | > 100 µM | > 100 µM | > 100 µM | 35.4 µM | 14.9 µM | 47.6 µM | 16.2 µM | > 100 µM | 27.8 µM | 4.68 µM | 16.6 µM | 6.53 µM | 21.2 µM | 7.21 µM | 2.84 | 8.18 µM | 4.01 µM | 3.91 µM | 4.55 µM
CSC(=Nc1ccccc1)/N=C(\SCc1ccccc1)N(C)C | 2.38 µM | 2.42 µM | 2.39 µM | 3.1 µM | 2.1 µM | 2.12 µM | 2.82 µM | 1.69 µM | 1.87 µM | 2.54 µM | – | – | – | – | – | – | – | – | – | –
CC(SC(=O)Nc1ccc(N=Nc2ccccc2)cc1)C(=O)O (stereo not drawn) | > 100 µM | > 100 µM | > 100 µM | > 100 µM | > 100 µM | > 100 µM | > 100 µM | > 100 µM | > 100 µM | > 100 µM | – | – | – | – | – | – | – | – | – | –
O=C1Cc2cc(C(=O)NC3C[C@H]4CC[C@@H](C3)N4S(=O)(=O)CC3CCN(CCCC(F)(F)F)CC3)c(Cl)cc2N1 (stereo partly drawn) | > 100 µM | > 100 µM | > 100 µM | > 100 µM | > 100 µM | > 100 µM | > 100 µM | > 100 µM | > 100 µM | > 100 µM | > 100 µM | > 100 µM | > 100 µM | > 100 µM | > 100 µM | > 100 | > 100 µM | > 100 µM | > 100 µM | > 100 µM
COc1cc2cc(Oc3ccc(NC(=O)Nc4ccc(Cl)c(Cl)c4)cc3)c(C)nc2cc1OC | > 100 µM | 20.5 µM | 12.1 µM | 8.68 µM | 6.19 µM | 10.5 µM | 12.6 µM | > 100 µM | 19.2 µM | 7.26 µM | 3.56 µM | 3.39 µM | 3 µM | 3.12 µM | 2.34 µM | 2.56 | 3.44 µM | 5.54 µM | 3.33 µM | 2.19 µM
CCN(CC)Cc1cc2[nH]c3c4ccc(Cl)cc4ncc3c2cc1OC | 8.66 µM and 6.94 µM | 22.7 µM and 26.7 µM | 16.3 µM and 4.98 µM | 28.8 µM and 28.5 µM | 3.78 µM and 4.29 µM | 3.59 µM and 3.4 µM | 8.93 µM and 3.83 µM | 6.79 µM and 13.6 µM | 29.4 µM and 3.46 µM | 5.97 µM and 5.39 µM | 2.05 µM and 2.46 µM | 10.8 µM and 13.7 µM | 5.68 µM and 1.98 µM | 14.4 µM and 15.1 µM | 1.89 µM and 2.02 µM | 1.88 | 4.25 µM and 1.59 µM | 2.22 µM and 3.33 µM | 15.5 µM and 1.81 µM | 2.18 µM and 2.16 µM
COc1ccc(/C(C#N)=C2C=C/C(=N/O)c3ccccc3\2)cc1 | 4.52 µM | 13.5 µM | 15.4 µM | 17 µM | 2.79 µM | 2.01 µM | 15.3 µM | 1.44 µM | 7.47 µM | 15.1 µM | 0.168 µM | 0.418 µM | 0.318 µM | 3.71 µM | 0.314 µM | 0.228 | 0.593 µM | 0.346 µM | 0.48 µM | 0.446 µM
O=C(Nc1nc2ccccc2s1)Nc1ccc([N+](=O)[O-])cc1Cl | 13 µM | 9.53 µM | 18 µM | 13.1 µM | 8.17 µM | 20.7 µM | 6.44 µM | 25 µM | 8.94 µM | 4.75 µM | 3.05 µM | 4.36 µM | 6.53 µM | 5.58 µM | 3.05 µM | 7.15 | 2.24 µM | 5.65 µM | 3.1 µM | 2.13 µM
O=C(NNc1ccccc1)/C(=C/c1ccc2c(c1)OCO2)NC(=O)c1ccccc1 | > 100 µM | > 100 µM | > 100 µM | > 100 µM | > 100 µM | > 100 µM | > 100 µM | > 100 µM | > 100 µM | > 100 µM | – | – | – | – | – | – | – | – | – | –
N#CC1c2ccccc2C=CN1C(=O)N(c1ccccc1)c1ccccc1 (stereo not drawn) | 6.93 µM | 10.8 µM | 3.3 µM | 15.2 µM | 3.18 µM | 5.19 µM | 3.12 µM | 23.9 µM | 5.57 µM | 19.3 µM | 2.51 µM | 3 µM | 1.79 µM | 3.76 µM | 1.76 µM | 2.19 | 1.49 µM | 11.1 µM | 2.13 µM | 6.59 µM
CCN1CCN(C(=O)[C@]23CCC(C)(C)C[C@@H]2C2=CC[C@@H]4[C@@]5(C)C/C(=C/c6ccncc6)C(=O)C(C)(C)[C@@H]5CC[C@@]4(C)[C@]2(C)CC3)CC1 | 2.73 µM | 2.66 µM | 2.95 µM | 4.31 µM | 2.91 µM | 3.17 µM | 2.5 µM | 2.89 µM | 2.82 µM | 2.87 µM | 1.25 µM | 1.31 µM | 1.6 µM | 2 µM | 1.49 µM | 1.54 | 1.24 µM | 1.47 µM | 1.46 µM | 1.42 µM
CC(=O)OC1COC(n2c(=S)n(-c3ccccc3)c(=O)c3ccccc32)C(OC(C)=O)C1OC(C)=O (stereo not drawn) | > 100 µM | > 100 µM | > 100 µM | > 100 µM | > 100 µM | > 100 µM | > 100 µM | > 100 µM | > 100 µM | > 100 µM | – | – | – | – | – | – | – | – | – | –
c1ccc2c(c1)cc1n2CC2CN=NC12 (stereo not drawn) | > 100 µM | > 100 µM | > 100 µM | > 100 µM | > 100 µM | > 100 µM | > 100 µM | > 100 µM | > 100 µM | > 100 µM | – | – | – | – | – | – | – | – | – | –
CC1(C)C(=O)C(C)(C)C1=S | > 100 µM | > 100 µM | > 100 µM | > 100 µM | > 100 µM | > 100 µM | > 100 µM | > 100 µM | > 100 µM | > 100 µM | – | – | – | – | – | – | – | – | – | –
CN1C(=O)C2(c3ccccc31)N(c1ccc(Cl)cc1)C(=O)C2(c1ccccc1)c1ccccc1 (stereo not drawn) | > 100 µM | > 100 µM | > 100 µM | > 100 µM | > 100 µM | > 100 µM | > 100 µM | > 100 µM | > 100 µM | > 100 µM | > 100 µM | 94.3 µM | 78.4 µM | > 100 µM | 20.2 µM | 45.3 | 27.9 µM | 66 µM | 39.7 µM | 45.5 µM
CN(Cc1cnc2nc(N)nc(N)c2n1)c1ccc(C(=O)NC(CCC(=O)O)C(=O)O)cc1Br (stereo not drawn) | > 100 µM | > 100 µM | > 100 µM | > 96.4 µM | 4.43 µM | 5.95 µM | – | – | 7.35 µM | > 100 µM | < 0.01 µM | < 0.01 µM | < 0.01 µM | < 0.01 µM | < 0.01 µM | < 0.01 | < 0.01 µM | < 0.01 µM | < 0.01 µM | < 0.0134 µM
C=CC(=O)N1CC2(CC(n3nc(-c4ccc5c(cnn5C)c4)c(-c4c(Cl)c(C)cc5[nH]ncc45)c3C)C2)C1 | 3.05 µM | 12.1 µM | 4.81 µM | 8.75 µM | 4.18 µM | 11.2 µM | 4.68 µM | 3.36 µM | 4.04 µM | 4.07 µM | 1.54 µM | 3.08 µM | 2.01 µM | 2.63 µM | 1.98 µM | 2.88 | 1.97 µM | 1.85 µM | 1.94 µM | 1.89 µM
O=C1NC(=NCCCc2ccccc2)S/C1=C\c1ccc2ncccc2c1 | > 25 µM | 20.9 µM | 15.6 µM | 10.7 µM | 10.6 µM | > 25 µM | 11.9 µM | > 25 µM | 10.9 µM | 10.3 µM | 2.9 µM | 6.13 µM | 5.08 µM | 4.2 µM | 4.81 µM | 9.63 | 4.06 µM | 8.09 µM | 4.65 µM | 2.9 µM
c1ccc2c3c([nH]c2c1)C(c1ccc(C2NCCc4c2[nH]c2ccccc42)cc1)NCC3 (stereo not drawn) | 1.78 µM | 3.05 µM | 2 µM | 4.23 µM | 2.6 µM | 1.58 µM | 2.26 µM | 1.28 µM | 2.13 µM | 1.1 µM | 0.429 µM | 1.47 µM | 0.713 µM | 1.96 µM | 1.24 µM | 0.403 | 1.04 µM | 0.274 µM | 0.749 µM | 0.321 µM
CCOC(=O)c1cnc2c(C)cccc2c1Nc1ccc(C(C)=O)cc1 | > 100 µM | > 100 µM | > 100 µM | > 100 µM | > 100 µM | > 100 µM | > 100 µM | > 100 µM | > 100 µM | > 100 µM | 20.7 µM | 24.9 µM | 33.5 µM | 7.01 µM | 26.1 µM | 77.8 | 13.5 µM | 53.3 µM | 11.4 µM | 63.8 µM
CC[n+]1c(/C=C/C=C2\N(C)c3ccccc3C2(C)C)sc2ccccc21 | 9.67 µM | 8 µM | 8.21 µM | 12.2 µM | 7.52 µM | 8.33 µM | 7.26 µM | 7.81 µM | 8.32 µM | 7.61 µM | 4.54 µM | 4.16 µM | 4.1 µM | 4.55 µM | 3.97 µM | 4.03 | 3.55 µM | 3.86 µM | 4.03 µM | 3.85 µM

— PubChem BioAssay (NCI)
